From the supplement of paper PMC5908809

Experiments:
[1] = test system: DERL-7 (IL-2 2.5 ng/mL); test: drug sensitivity score (DSS) (DSS units); higher = more sensitive; extreme values may be limits of the assay; conditions: 72 h
[2] = test system: normal primary NK cells, pool 2 (3 donors) (IL-2 2.5 ng/mL); test: as above; conditions: 72 h
[3] = test system: IMC-1 (IL-2 20 ng/mL); test: as above; conditions: 72 h
[4] = test system: normal primary NK cells, pool 1 (3 donors) (IL-2 2.5 ng/mL); test: as above; conditions: 72 h
[5] = test system: normal primary NK cells, pool 1 (3 donors), resting (IL-2 0 ng/mL); test: as above; conditions: 72 h
[6] = test system: normal primary NK cells, pool 3 (3 donors) (IL-2 2.5 ng/mL); test: as above; conditions: 72 h
[7] = test system: NKL (IL-2 2.5 ng/mL); test: as above; conditions: 72 h
[8] = test system: YT (IL-2 2.5 ng/mL); test: as above; conditions: 72 h
[9] = test system: NK-YS (IL-2 2.5 ng/mL); test: as above; conditions: 72 h
[10] = test system: SNK-6 (IL-2 2.5 ng/mL); test: as above; conditions: 72 h
[11] = test system: NK-92 (IL-2 2.5 ng/mL); test: as above; conditions: 72 h
[12] = test system: KAI3 (IL-2 2.5 ng/mL); test: as above; conditions: 72 h
[13] = test system: KHYG-1 (IL-2 2.5 ng/mL); test: as above; conditions: 72 h
[14] = test system: normal NK cells expanded with K562-aAPC; test: as above; conditions: 72 h; IL-2 2.5 ng/mL
Protocol: (§1)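 Drug sensitivity and resistance testing on K562-aAPC-expanded normal NK cells: 5 concentrations (10-fold steps over a 10,000-fold range), 72 h at 37 °C, viability by CellTiter-Glo normalised to DMSO and benzethonium chloride controls; DSS from the fitted curve.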

[15] = test system: DERL-7 (IL-2 2.5 ng/mL); test: percent inhibition of viability; higher = more inhibition; conditions: 72 h
[16] = test system: normal primary NK cells, pool 2 (3 donors) (IL-2 2.5 ng/mL); test: as above; conditions: 72 h
[17] = test system: IMC-1 (IL-2 20 ng/mL); test: as above; conditions: 72 h
[18] = test system: normal primary NK cells, pool 1 (3 donors) (IL-2 2.5 ng/mL); test: as above; conditions: 72 h
[19] = test system: normal primary NK cells, pool 1 (3 donors), resting (IL-2 0 ng/mL); test: as above; conditions: 72 h
[20] = test system: normal primary NK cells, pool 3 (3 donors) (IL-2 2.5 ng/mL); test: as above; conditions: 72 h
[21] = test system: NKL (IL-2 2.5 ng/mL); test: as above; conditions: 72 h
[22] = test system: YT (IL-2 2.5 ng/mL); test: as above; conditions: 72 h
[23] = test system: NK-YS (IL-2 2.5 ng/mL); test: as above; conditions: 72 h
[24] = test system: SNK-6 (IL-2 2.5 ng/mL); test: as above; conditions: 72 h
[25] = test system: NK-92 (IL-2 2.5 ng/mL); test: as above; conditions: 72 h
[26] = test system: KAI3 (IL-2 2.5 ng/mL); test: as above; conditions: 72 h
[27] = test system: KHYG-1 (IL-2 2.5 ng/mL); test: as above; conditions: 72 h
[28] = test system: normal NK cells expanded with K562-aAPC; test: as above; conditions: 72 h, IL-2 2.5 ng/mL
Protocol: as §1

O=C(NC1CCNCC1)c1n[nH]cc1NC(=O)c1c(Cl)cccc1Cl [AT7519] (max concentration tested 10000 nM)
Conditions	drug sensitivity score
[1]	17.3
[2]	17.2
[3]	17.4
[4]	18.6
[5]	15.1
[6]	16.8
[7]	20.3
[8]	15.6
[9]	18.9
[10]	9.33
[11]	9.5
[12]	16.3
[13]	12.7
[14]	17.5

percent inhibition of viability [%]
Conditions	1 nM	10 nM	100 nM	1000 nM	10000 nM
[15]	3.68	-3.37	-6.6	99.2	100
[16]	-5.51	-3.1	0.18	95.2	95.8
[17]	5.46	1.26	-0.14	96.8	96.4
[18]	-13.5	-8.03	6.78	96.9	97.9
[19]	-42.2	-37.4	-20.6	90.1	89.6
[20]	-13.9	-11.2	-5.85	94.7	98.8
[21]	1.32	5.88	13.8	102	97.5
[22]	0.46	-3.64	6.82	79.9	97
[23]	-2.23	-4.04	9.45	96.6	93.7
[24]	6.43	-7.68	0.7	50.8	48.4
[25]	-10.5	-1.16	-2.58	32.2	90.7
[26]	1.05	-1.69	4.7	86.2	94
[27]	-2.18	-4.7	1.67	61.9	96.3
[28]	-3.7	0.1	-4.47	99.1	100

CN1CCN(C2CCN(C(=O)Nc3cc(Oc4ccc(NC(=O)C5(C(=O)Nc6ccc(F)cc6)CC5)c(F)c4)ccn3)CC2)CC1 [Golvatinib] (max concentration tested 2500 nM)
Conditions	drug sensitivity score
[1]	0.2
[2]	0
[3]	0
[4]	0.66
[5]	1.23
[6]	0
[7]	1.26
[8]	1.11
[9]	0.08
[10]	0
[11]	4.41
[12]	1.75
[13]	3.05
[14]	1.59

percent inhibition of viability [%]
Conditions	0.25 nM	2.5 nM	25 nM	250 nM	2500 nM
[15]	-1.96	-0.71	1.22	-0.87	15.2
[16]	-0.98	2.77	11.2	-2.79	3.25
[17]	-9.45	-2.35	-2.39	5.73	3.69
[18]	-2.39	15	8.72	9.1	11.9
[19]	-3.44	12.3	5.91	13.5	11.9
[20]	-5.97	4.22	1.77	0.21	-2.7
[21]	-12.1	-3.62	2.15	8.61	20.8
[22]	-6.16	-1.34	-3.26	2.58	22.1
[23]	-10.5	-6.07	-5.82	0.77	12.1
[24]	-15.4	-12	-10.5	-8.86	2.23
[25]	-11.7	-1.86	-7.52	14.7	44.5
[26]	-7	-3.9	0.53	6.28	24
[27]	-11.8	-6.81	-7.1	2.14	52.1
[28]	-2.77	-6.95	-4.34	5.19	23.6

Clc1ccccc1C(c1ccccc1)(c1ccccc1)n1cccn1 [TRAM-34] (max concentration tested 1000 nM)
Conditions	drug sensitivity score
[1]	0
[2]	0
[3]	0
[4]	0
[5]	0
[6]	0
[7]	0
[8]	0
[9]	0
[10]	0
[11]	0
[12]	0
[13]	0
[14]	0.49

percent inhibition of viability [%]
Conditions	0.1 nM	1 nM	10 nM	100 nM	1000 nM
[15]	2.4	-1.24	1.99	-0.74	3.63
[16]	-11.6	-1.76	12.1	-4.19	0.97
[17]	-7.73	1.38	0.84	6.67	8.82
[18]	3.23	-13.1	1.01	-11	-5.83
[19]	-5.83	-36.5	-10.7	-18.8	-3.17
[20]	-3.16	-4.73	5.06	-3.53	6.24
[21]	-1.68	-6.27	6.64	4.13	5.01
[22]	-3.41	-5.82	-7.53	-11.9	12.2
[23]	1.9	0.93	2.82	2.55	8.67
[24]	5.28	12.6	2.07	24	3.1
[25]	-8.56	-5.28	-2.17	-14.1	11.6
[26]	-2.69	4.59	-1.47	2.61	4.51
[27]	-1.11	0.96	-3.26	0.95	-0.5
[28]	-6.55	1.68	-0.18	9.02	12.7
